Test results taken from patent US8183272B2, “Indanyl compounds” (Daiichi Sankyo Company, Limited, priority 2008, dated 2012).
Counter-ions that a name gives are not always drawn.

Target: T1, human calcium-sensing receptor (CaSR) (Homo sapiens, UniProt P41180)
T1 construct: expressed in transfected cells; host or cells: CHO cells (CHO/hCaSR)
T1 sequence (P41180 20-1078): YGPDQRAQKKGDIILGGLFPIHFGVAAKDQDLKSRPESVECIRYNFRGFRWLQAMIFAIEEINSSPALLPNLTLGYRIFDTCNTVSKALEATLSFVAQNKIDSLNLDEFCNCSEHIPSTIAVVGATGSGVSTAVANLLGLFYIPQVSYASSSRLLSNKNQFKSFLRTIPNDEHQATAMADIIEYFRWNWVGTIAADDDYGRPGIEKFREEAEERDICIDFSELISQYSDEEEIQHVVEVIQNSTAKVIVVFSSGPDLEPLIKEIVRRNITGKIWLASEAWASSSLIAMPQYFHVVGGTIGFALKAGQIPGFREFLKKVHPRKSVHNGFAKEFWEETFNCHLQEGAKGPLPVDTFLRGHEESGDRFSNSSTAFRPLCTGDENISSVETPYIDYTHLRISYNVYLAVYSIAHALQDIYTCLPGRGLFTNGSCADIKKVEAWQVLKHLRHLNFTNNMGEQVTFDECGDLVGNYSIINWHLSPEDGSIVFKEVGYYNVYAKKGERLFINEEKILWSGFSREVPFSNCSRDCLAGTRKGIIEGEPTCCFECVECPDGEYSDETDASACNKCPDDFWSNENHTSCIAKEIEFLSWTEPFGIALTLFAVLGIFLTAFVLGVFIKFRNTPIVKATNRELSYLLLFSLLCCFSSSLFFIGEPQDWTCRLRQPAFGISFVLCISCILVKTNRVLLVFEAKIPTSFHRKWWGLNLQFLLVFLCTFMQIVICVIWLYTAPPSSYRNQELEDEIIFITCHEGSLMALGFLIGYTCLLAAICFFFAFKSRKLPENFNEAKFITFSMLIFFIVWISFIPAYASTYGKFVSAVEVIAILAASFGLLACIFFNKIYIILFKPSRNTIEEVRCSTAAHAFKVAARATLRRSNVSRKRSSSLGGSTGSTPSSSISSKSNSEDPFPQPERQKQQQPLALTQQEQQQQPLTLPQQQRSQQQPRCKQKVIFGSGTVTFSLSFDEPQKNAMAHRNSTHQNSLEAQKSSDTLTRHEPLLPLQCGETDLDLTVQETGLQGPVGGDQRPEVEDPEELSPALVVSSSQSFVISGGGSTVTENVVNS
Assay: Inhibitory activity on calcium-sensing receptor (CaSR) using intracellular calcium increase as an indicator (FLIPR, CHO/hCaSR)
Format: cell-based
Settings: CHO/hCaSR cells; intracellular Ca increase induced by CaCl2; test compound 1.05 to 10,000 nM
Description: Evaluation of inhibitory activity on calcium-sensing receptor (CaSR) using intracellular calcium increase as an indicator
The preparation which is prepared by adding CHO/hCaSR to F12 medium (manufactured by Invitrogen) containing 10% fetal bovine serum to have 2×10^5 cells/mL was applied to a 384-well in an amount of 50 μL/well, and then incubated overnight in a CO2 incubator. The culture supernatant was completely removed, the assay buffer (20 mM HEPES, HBSS (Ca and Mg free) containing 2.5 mM probenecid, pH 7.4) containing Calcium 3 (manufactured by Molecular Devices), i.e., a fluorescent intracellular calcium indicator, was added thereto in an amount of 25 μL/well, and the mixture was maintained for 1 hour in a CO2 incubator. Meanwhile, Calcium 3 was prepared according to the protocol enclosed in FLIPR Calcium 3 Assay Kit (manufactured by Molecular Devices). After maintaining it for 1 hour, a solution in which the test compound is prepared to have 2.1 to 20,000 nM (final concentration of 1.05 to 10,000 nM) by an assay buffer was added thereto in an amount of 25 μL/well, and maintained for 15 minutes in a CO2 incubator. Then, the CaCl2 solution prepared to have […] by using the assay buffer was added in an amount of 25 μL/well, and the resulting intracellular Ca increase (i.e., fluorescence intensity) was measured over time using a fluorescence imaging plate reader (FLIPR, manufactured by Molecular Devices). From the data obtained, the difference between the fluorescence intensity before the addition of CaCl2 solution and the maximum fluorescence intensity after the addition of CaCl2 solution was calculated, and the 50% inhibition concentration (IC50) of the test compound was obtained.

Molecule Cc1cccc([C@@H](C)OC[C@H](O)CNC(C)(C)CC2Cc3ccccc3C2)c1CCC(=O)O [Example 42] has an IC50 of no more than 2420 nM.

With Cc1ccc([C@@H](C)OC[C@H](O)CNC(C)(C)CC2Cc3ccccc3C2)c(CCCCC(=O)O)c1 [Example 43] the IC50 was no more than 2280 nM.

For C[C@@H](OC[C@H](O)CNC(C)(C)CC1Cc2ccccc2C1)c1ccc(F)cc1CCCCC(=O)O [Example 44], the IC50 was no more than 2270 nM.

In the case of C[C@@H](OC[C@H](O)CNC(C)(C)CC1Cc2ccccc2C1)c1cc(F)ccc1CCCCC(=O)O [Example 45], the IC50 is reported as no more than 2270 nM.

With Cc1ccc(CCCCC(=O)O)c([C@@H](C)OC[C@H](O)CNC(C)(C)CC2Cc3ccccc3C2)c1 [Example 46] the IC50 was no more than 2280 nM.

Work on Cc1cccc([C@@H](C)OC[C@H](O)CNC(C)(C)CC2Cc3ccccc3C2)c1CCCCC(=O)O [Example 47] yielded an IC50 of no more than 2280 nM.

With C[C@@H](OC[C@H](O)CNC(C)(C)CC1Cc2ccccc2C1)c1cccc(F)c1CCCCC(=O)O [Example 48] the IC50 was no more than 2270 nM.

C[C@@H](OC[C@H](O)CNC(C)(C)CC1Cc2ccccc2C1)c1cc(C(F)(F)F)ccc1CCC(=O)O [Example 49] showed an IC50 of no more than 2170 nM.

C[C@@H](OC[C@H](O)CNC(C)(C)CC1Cc2ccccc2C1)c1cc(C(F)(F)F)ccc1CCCCC(=O)O [Example 50] was tested, and the IC50 was no more than 2050 nM.

Work on CCC[C@@H](OC[C@H](O)CNC(C)(C)CC1Cc2ccccc2C1)c1cc(F)ccc1CCC(=O)O [Example 51] yielded an IC50 of no more than 2270 nM.

For CCC[C@@H](OC[C@H](O)CNC(C)(C)CC1Cc2ccccc2C1)c1cccc(C)c1CCC(=O)O [Example 52], the IC50 was no more than 2280 nM.

CCC[C@@H](OC[C@H](O)CNC(C)(C)CC1Cc2ccccc2C1)c1cccc(F)c1CCC(=O)O [Example 53] was tested, and the IC50 was no more than 2270 nM.

Work on CCC[C@@H](OC[C@H](O)CNC(C)(C)CC1Cc2ccccc2C1)c1ccc(C)cc1CCC(=O)O [Example 54] yielded an IC50 of no more than 2280 nM.

Molecule CCC[C@@H](OC[C@H](O)CNC(C)(C)CC1Cc2ccccc2C1)c1cccc(OC)c1CCC(=O)O [Example 55] has an IC50 of no more than 2210 nM.

Work on CCOc1ccc(CCC(=O)O)c([C@@H](C)OC[C@H](O)CNC(C)(C)CC2Cc3ccccc3C2)c1 [Example 56] yielded an IC50 of no more than 2270 nM.

For CCOc1ccc(CCCCC(=O)O)c([C@@H](C)OC[C@H](O)CNC(C)(C)CC2Cc3ccccc3C2)c1 [Example 58], the IC50 was no more than 2150 nM.

Molecule CC[C@@H](OC[C@H](O)CNC(C)(C)CC1Cc2ccccc2C1)c1cc(F)c(C)cc1CCC(=O)O [Example 60] has an IC50 of no more than 2270 nM.

With CC[C@@H](OC[C@H](O)CNC(C)(C)CC1Cc2ccccc2C1)c1cc(F)c(C)cc1CCCCC(=O)O [Example 61] the IC50 was no more than 2140 nM.

CCOc1cccc([C@@H](C)OC[C@H](O)CNC(C)(C)CC2Cc3ccccc3C2)c1CCC(=O)O [Example 62] gave an IC50 of no more than 2270 nM.

CCOc1cccc([C@@H](C)OC[C@H](O)CNC(C)(C)CC2Cc3ccccc3C2)c1CCCCC(=O)O [Example 63] gave an IC50 of no more than 2150 nM.

Work on CC(C)Oc1cccc([C@@H](C)OC[C@H](O)CNC(C)(C)CC2Cc3ccccc3C2)c1CCC(=O)O [Example 64] yielded an IC50 of no more than 2210 nM.

CC(C)Oc1cccc([C@@H](C)OC[C@H](O)CNC(C)(C)CC2Cc3ccccc3C2)c1CCCCC(=O)O [Example 65] showed an IC50 of no more than 2090 nM.

Work on C[C@@H](OC[C@H](O)CNC(C)(C)CC1Cc2ccccc2C1)c1cccc(OC(F)F)c1CCC(=O)O [Example 66] yielded an IC50 of no more than 2180 nM.

C[C@@H](OC[C@H](O)CNC(C)(C)CC1Cc2ccccc2C1)c1ccccc1CCCCCC(=O)O [Example 67] was tested, and the IC50 was no more than 2280 nM.

For C[C@@H](OC[C@H](O)CNC(C)(C)CC1Cc2ccccc2C1)c1ccccc1CCCCCCC(=O)O [Example 68], the IC50 was no more than 2220 nM.

In the case of C[C@@H](OC[C@H](O)CNC(C)(C)CC1Cc2ccccc2C1)c1ccc(Cl)cc1CCC(=O)O [Example 69], the IC50 is reported as no more than 2320 nM.

C[C@@H](OC[C@H](O)CNC(C)(C)CC1Cc2ccccc2C1)c1cc(Cl)ccc1CCC(=O)O [Example 70] was tested, and the IC50 was no more than 2320 nM.

C[C@@H](OC[C@H](O)CNC(C)(C)CC1Cc2ccccc2C1)c1cccc(Cl)c1CCC(=O)O [Example 71] showed an IC50 of no more than 2320 nM.

Work on C[C@@H](OC[C@H](O)CNC(C)(C)CC1Cc2ccccc2C1)c1ccc(Cl)cc1CCCCC(=O)O [Example 72] yielded an IC50 of no more than 2190 nM.

CC[C@@H](OC[C@H](O)CNC(C)(C)CC1Cc2ccccc2C1)c1cc(Cl)ccc1CCC(=O)O [Example 73] was tested, and the IC50 was no more than 2250 nM.

With CC[C@@H](OC[C@H](O)CNC(C)(C)CC1Cc2ccccc2C1)c1ccc(Cl)cc1CCC(=O)O [Example 74] the IC50 was no more than 2250 nM.

CC[C@@H](OC[C@H](O)CNC(C)(C)CC1Cc2ccccc2C1)c1cccc(Cl)c1CCC(=O)O [Example 75] was tested, and the IC50 was no more than 2250 nM.

With CCC[C@@H](OC[C@H](O)CNC(C)(C)CC1Cc2ccccc2C1)c1cc(Cl)ccc1CCC(=O)O [Example 76] the IC50 was no more than 2190 nM.

CCC[C@@H](OC[C@H](O)CNC(C)(C)CC1Cc2ccccc2C1)c1ccc(Cl)cc1CCC(=O)O [Example 77] was tested, and the IC50 was no more than 2190 nM.

For CCC[C@@H](OC[C@H](O)CNC(C)(C)CC1Cc2ccccc2C1)c1cccc(Cl)c1CCC(=O)O [Example 78], the IC50 was no more than 2190 nM.

For CC[C@@H](OC[C@H](O)CNC(C)(C)CC1Cc2ccccc2C1)c1cc(F)c(F)cc1CCC(=O)O [Example 79], the IC50 was no more than 2250 nM.

Work on CC[C@@H](OC[C@H](O)CNC(C)(C)CC1Cc2ccccc2C1)c1cc(F)cc(F)c1CCC(=O)O [Example 80] yielded an IC50 of no more than 2250 nM.

C[C@@H](OC[C@H](O)CNC(C)(C)CC1Cc2ccccc2C1)c1ccccc1CCc1nn[nH]n1 [Example 81, (2R)-1-{[2-(2,3-Dihydro-1H-inden-2-yl)-1,1-dimethylethyl]amino}-3-[(1R)-1-{2-[2-(2H-tetrazol-5-yl)ethyl]phenyl}ethoxy]propan-2-ol formate] was tested, and the IC50 was no more than 2160 nM.

For C[C@@H](OC[C@H](O)CNC(C)(C)CC1Cc2ccccc2C1)c1ccccc1CC(C)(C)C(=O)O [Example 82, 3-{2-[(1R)-1-{[(2R)-3-{[1-(2,3-Dihydro-1H-inden-2-yl)-2-methylpropan-2-yl]amino}-2-hydroxypropyl]oxy}ethyl]phenyl}-2,2-dimethylpropanoic acid], the IC50 was no more than 2350 nM.

C[C@@H](OC[C@H](O)CNC(C)(C)CC1Cc2ccccc2C1)c1ccccc1CCOCC(=O)O [Example 83, (2-{2-[(1R)-1-{[(2R)-3-{[1-(2,3-Dihydro-1H-inden-2-yl)-2-methylpropan-2-yl]amino}-2-hydroxypropyl]oxy}ethyl]phenyl}ethoxy)acetic acid] was tested, and the IC50 was no more than 2340 nM.

For C[C@@H](OC[C@H](O)CNC(C)(C)CC1Cc2ccccc2C1)c1ccccc1CCCOCC(=O)O [Example 85, (3-{2-[(1R)-1-{[(2R)-3-{[1-(2,3-Dihydro-1H-inden-2-yl)-2-methylpropan-2-yl]amino}-2-hydroxypropyl]oxy}ethyl]phenyl}propoxy)acetic acid], the IC50 was no more than 2270 nM.
